Experimental data taken from paper doi:10.1101/2021.04.08.439011v1 (biorxiv, 2021).

Legend:
Conditions in all cases: 1 µM; binder
IGF1R = IGF1R (Homo sapiens, UniProt P08069)
PIK3CA(C420R) = PIK3CA(C420R) (Homo sapiens, UniProt P42336, C420R)
NDR2 = NDR2 (Homo sapiens, UniProt Q9Y2H1)
NEK7 = NEK7 (Homo sapiens, UniProt Q8TDX7)
CDC2L2 = CDC2L2 (Homo sapiens, UniProt Q9UQ88)
WNK1 = WNK1 (Homo sapiens, UniProt Q9H4A3)
PKN1 = PKN1 (Homo sapiens, UniProt Q16512)
GAK = GAK (Homo sapiens, UniProt O14976)
PFTAIRE2 = PFTAIRE2 (Homo sapiens, UniProt Q96Q40)
MARK1 = MARK1 (Homo sapiens, UniProt Q9P0L2)
MET = MET (Homo sapiens, UniProt P08581)
CDKL1 = CDKL1 (Homo sapiens, UniProt Q00532)
PRKD1 = PRKD1 (Homo sapiens, UniProt Q15139)
DDR1 = DDR1 (Homo sapiens, UniProt Q08345)
EGFR(G719S) = EGFR(G719S) (Homo sapiens, UniProt P00533, G719S)
DDR2 = DDR2 (Homo sapiens, UniProt Q16832)
TTK = TTK (Homo sapiens, UniProt P33981)
MYO3B = MYO3B (Homo sapiens, UniProt Q8WXR4)
TBK1 = TBK1 (Homo sapiens, UniProt Q9UHD2)
CDK4 = CDK4 (Homo sapiens, UniProt P11802)
ACVR2A = ACVR2A (Homo sapiens, UniProt P27037)
DRAK1 = DRAK1 (Homo sapiens, UniProt Q9UEE5)
FLT3(D835V) = FLT3(D835V) (Homo sapiens, UniProt P36888, D835V)
JNK3 = JNK3 (Homo sapiens, UniProt P53779)
ACVR1 = ACVR1 (Homo sapiens, UniProt Q04771)
BRSK1 = BRSK1 (Homo sapiens, UniProt Q8TDC3)
PIK3CD = PIK3CD (Homo sapiens, UniProt O00329)
CHEK2 = CHEK2 (Homo sapiens, UniProt O96017)
NEK2 = NEK2 (Homo sapiens, UniProt P51955)
MEK6 = MEK6 (Homo sapiens, UniProt P52564)

BRSK1, sequence (Q8TDC3 whole entry): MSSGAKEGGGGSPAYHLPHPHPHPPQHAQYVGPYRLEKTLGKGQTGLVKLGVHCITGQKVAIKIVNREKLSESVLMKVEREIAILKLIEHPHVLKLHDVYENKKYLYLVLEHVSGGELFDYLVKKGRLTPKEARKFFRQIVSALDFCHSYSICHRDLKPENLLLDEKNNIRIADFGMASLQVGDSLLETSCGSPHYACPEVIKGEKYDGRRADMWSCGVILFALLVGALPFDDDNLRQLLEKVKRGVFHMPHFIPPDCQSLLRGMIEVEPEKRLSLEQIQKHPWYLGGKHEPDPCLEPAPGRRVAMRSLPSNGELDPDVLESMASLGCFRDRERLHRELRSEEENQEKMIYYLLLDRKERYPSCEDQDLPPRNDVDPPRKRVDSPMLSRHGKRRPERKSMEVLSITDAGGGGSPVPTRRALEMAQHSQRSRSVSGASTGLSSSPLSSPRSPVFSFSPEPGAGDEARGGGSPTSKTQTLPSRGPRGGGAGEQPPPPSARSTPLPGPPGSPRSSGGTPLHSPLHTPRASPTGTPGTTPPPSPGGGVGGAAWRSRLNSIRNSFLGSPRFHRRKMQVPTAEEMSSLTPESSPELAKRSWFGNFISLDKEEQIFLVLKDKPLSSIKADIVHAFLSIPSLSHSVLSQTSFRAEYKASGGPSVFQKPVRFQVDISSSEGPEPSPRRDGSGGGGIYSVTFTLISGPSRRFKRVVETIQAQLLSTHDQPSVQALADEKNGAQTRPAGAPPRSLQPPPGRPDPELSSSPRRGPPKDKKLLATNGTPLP
TBK1, sequence (Q9UHD2 whole entry): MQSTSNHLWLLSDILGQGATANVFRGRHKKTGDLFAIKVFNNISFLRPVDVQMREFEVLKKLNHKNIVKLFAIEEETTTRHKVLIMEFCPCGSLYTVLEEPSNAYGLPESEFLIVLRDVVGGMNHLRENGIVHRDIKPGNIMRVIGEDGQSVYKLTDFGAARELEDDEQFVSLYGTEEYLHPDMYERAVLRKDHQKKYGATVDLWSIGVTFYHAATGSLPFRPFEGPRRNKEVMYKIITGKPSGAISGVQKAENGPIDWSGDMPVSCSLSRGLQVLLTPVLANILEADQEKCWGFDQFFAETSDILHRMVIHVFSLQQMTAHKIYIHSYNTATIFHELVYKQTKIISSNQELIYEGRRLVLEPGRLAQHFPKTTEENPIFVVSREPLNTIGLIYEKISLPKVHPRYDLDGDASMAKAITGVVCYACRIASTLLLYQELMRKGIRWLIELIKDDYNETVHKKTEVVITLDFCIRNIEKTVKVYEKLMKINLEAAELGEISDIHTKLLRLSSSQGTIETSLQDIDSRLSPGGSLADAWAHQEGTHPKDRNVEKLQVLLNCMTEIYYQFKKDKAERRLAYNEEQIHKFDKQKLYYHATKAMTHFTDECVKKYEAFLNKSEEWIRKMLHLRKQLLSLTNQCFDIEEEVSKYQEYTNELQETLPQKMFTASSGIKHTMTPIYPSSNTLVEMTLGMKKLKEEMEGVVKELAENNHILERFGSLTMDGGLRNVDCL
CDKL1, sequence (Q00532 whole entry): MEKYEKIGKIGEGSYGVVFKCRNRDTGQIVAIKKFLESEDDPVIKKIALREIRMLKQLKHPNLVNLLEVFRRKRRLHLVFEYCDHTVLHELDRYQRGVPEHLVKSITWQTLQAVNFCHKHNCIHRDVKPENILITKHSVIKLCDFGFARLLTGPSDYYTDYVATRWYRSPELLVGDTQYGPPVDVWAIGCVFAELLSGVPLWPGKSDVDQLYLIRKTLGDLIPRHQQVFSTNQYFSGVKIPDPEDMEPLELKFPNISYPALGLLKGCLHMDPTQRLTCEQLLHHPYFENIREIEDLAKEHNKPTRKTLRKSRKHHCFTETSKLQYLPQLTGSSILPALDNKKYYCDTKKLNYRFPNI
GAK, sequence (O14976 whole entry): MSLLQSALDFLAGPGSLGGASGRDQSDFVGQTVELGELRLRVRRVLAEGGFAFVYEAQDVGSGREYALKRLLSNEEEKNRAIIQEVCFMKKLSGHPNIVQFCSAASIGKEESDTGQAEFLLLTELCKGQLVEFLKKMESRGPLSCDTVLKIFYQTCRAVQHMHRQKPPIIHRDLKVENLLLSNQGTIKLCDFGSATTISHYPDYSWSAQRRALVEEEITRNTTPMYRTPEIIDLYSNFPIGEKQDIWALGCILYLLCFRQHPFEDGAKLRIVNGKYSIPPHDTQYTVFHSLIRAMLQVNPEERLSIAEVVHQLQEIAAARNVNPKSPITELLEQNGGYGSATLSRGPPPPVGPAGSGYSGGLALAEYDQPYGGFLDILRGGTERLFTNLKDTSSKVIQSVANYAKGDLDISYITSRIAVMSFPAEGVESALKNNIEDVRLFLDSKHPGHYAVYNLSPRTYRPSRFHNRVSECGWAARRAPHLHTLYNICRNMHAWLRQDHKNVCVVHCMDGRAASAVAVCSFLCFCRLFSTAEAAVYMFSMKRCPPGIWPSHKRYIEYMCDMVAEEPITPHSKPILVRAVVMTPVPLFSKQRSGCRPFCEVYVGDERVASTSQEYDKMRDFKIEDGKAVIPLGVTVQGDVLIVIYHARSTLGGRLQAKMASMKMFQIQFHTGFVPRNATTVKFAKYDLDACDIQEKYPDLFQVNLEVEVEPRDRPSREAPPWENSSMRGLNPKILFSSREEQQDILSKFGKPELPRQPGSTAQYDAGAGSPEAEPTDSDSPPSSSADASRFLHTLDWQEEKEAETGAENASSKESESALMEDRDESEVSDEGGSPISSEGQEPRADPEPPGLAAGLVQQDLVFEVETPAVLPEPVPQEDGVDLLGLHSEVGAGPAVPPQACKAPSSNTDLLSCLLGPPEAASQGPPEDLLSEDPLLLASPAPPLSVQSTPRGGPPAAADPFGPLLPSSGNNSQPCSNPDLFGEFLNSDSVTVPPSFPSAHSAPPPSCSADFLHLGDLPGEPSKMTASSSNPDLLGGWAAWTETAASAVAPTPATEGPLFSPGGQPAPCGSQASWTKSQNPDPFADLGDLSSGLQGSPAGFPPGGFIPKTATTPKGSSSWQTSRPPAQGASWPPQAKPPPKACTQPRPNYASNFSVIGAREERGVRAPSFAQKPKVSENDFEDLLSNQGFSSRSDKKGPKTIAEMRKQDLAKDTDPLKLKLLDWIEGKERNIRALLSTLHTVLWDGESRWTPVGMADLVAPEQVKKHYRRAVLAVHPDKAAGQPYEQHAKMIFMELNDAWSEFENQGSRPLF
MYO3B, sequence (Q8WXR4 whole entry): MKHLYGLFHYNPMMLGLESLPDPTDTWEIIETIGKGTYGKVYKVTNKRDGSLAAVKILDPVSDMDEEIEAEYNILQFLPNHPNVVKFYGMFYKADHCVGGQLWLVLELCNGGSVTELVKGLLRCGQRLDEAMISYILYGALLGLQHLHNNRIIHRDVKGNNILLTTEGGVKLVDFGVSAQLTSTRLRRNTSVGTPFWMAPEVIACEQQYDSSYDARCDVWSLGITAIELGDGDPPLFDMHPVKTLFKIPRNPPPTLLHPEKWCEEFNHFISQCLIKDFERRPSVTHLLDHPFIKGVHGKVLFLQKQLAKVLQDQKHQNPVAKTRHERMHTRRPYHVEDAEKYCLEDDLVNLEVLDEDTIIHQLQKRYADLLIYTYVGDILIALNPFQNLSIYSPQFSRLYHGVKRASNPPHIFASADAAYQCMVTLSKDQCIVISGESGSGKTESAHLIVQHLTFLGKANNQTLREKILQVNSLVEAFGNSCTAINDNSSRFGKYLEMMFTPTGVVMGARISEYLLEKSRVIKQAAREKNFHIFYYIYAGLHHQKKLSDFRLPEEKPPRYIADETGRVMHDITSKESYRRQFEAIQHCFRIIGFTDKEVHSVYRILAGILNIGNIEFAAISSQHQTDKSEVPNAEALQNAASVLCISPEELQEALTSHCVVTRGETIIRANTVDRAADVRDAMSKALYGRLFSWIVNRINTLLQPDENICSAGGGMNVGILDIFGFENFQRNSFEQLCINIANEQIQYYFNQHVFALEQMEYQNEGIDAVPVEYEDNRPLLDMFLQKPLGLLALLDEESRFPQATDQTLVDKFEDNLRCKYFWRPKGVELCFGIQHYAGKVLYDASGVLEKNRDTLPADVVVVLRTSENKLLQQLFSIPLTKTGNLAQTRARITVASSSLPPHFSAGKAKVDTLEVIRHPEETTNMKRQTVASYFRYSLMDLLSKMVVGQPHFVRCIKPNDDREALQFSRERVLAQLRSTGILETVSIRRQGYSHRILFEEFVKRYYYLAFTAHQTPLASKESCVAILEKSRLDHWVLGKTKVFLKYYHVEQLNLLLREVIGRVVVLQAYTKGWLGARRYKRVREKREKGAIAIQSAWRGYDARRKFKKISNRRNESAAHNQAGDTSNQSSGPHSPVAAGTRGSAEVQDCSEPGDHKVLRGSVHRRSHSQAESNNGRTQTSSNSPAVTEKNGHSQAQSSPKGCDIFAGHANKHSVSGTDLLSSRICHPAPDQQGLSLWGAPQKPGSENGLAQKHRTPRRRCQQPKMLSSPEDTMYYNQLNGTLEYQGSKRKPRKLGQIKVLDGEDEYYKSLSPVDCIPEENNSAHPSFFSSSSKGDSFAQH
DRAK1, sequence (Q9UEE5 whole entry): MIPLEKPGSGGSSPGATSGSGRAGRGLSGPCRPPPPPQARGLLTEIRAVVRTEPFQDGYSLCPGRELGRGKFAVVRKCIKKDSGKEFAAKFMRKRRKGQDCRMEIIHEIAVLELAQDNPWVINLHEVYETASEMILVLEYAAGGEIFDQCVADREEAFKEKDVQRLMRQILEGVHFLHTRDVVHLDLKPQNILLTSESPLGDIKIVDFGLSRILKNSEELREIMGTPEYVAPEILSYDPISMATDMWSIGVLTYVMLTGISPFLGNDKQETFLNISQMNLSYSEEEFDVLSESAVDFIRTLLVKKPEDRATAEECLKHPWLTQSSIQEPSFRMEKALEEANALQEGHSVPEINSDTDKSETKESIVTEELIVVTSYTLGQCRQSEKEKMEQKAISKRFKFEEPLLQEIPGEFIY

SMILES: CNc1ncc2cc(-c3ccc(-c4cccc(C)n4)cc3Cl)c(=O)n(C[C@H]3OC[C@H](N)CO3)c2n1 [compound 6, G-5555]
- Percent Control (IGF1R): 100%
- Percent Control (PIK3CA(C420R)): 100%
- Percent Control (NDR2): 100%
- Percent Control (NEK7): 100%
- Percent Control (CDC2L2): 100%
- Percent Control (WNK1): 69%
- Percent Control (PKN1): 92%
- Percent Control (GAK): 1.7%
- Percent Control (PFTAIRE2): 100%
- Percent Control (MARK1): 68%
- Percent Control (MET): 40%
- Percent Control (CDKL1): 100%
- Percent Control (PRKD1): 17%
- Percent Control (DDR1): 53%
- Percent Control (EGFR(G719S)): 100%
- Percent Control (DDR2): 100%
- Percent Control (TTK): 97%
- Percent Control (MYO3B): 57%
- Percent Control (TBK1): 68%
- Percent Control (CDK4): 100%
- Percent Control (ACVR2A): 100%
- Percent Control (DRAK1): 100%
- Percent Control (FLT3(D835V)): 67%
- Percent Control (JNK3): 87%
- Percent Control (ACVR1): 100%
- Percent Control (BRSK1): 100%
- Percent Control (PIK3CD): 97%
- Percent Control (CHEK2): 100%
- Percent Control (NEK2): 60%
- Percent Control (MEK6): 30%
